15 compounds from patent US20220127247A1, “N-(PYRIDIN-2-YL)PYRIDINE-SULFONAMIDE DERIVATIVES AND THEIR USE IN THE TREATMENT OF DISEASE” (NOVARTIS AG, priority 2019, published 2022) can be followed below.

Assay [1] has as its target T1, delF508-CFTR (Homo sapiens, UniProt P13569, DEL508-508).
T1 construct: expressed in transfected cells
The assay is described as follows: Measurement of delF508-CFTR-HRP surface expression in CFBE41o- cells. It is filed as cell-based. To be noted: HRP-tagged delF508-CFTR in CFBE41o- cells, 24 h with compound, luminescence, 10-point curve, top 10 μM. Summed up:
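CFBE41o- cells stably expressing delF508-CFTR with HRP in the fourth extracellular loop, induced with 500 ng/mL doxycycline for 48 h, then treated with compound (top 10 μM, 10-point 3-fold) for 24 h at 37° C. Surface HRP detected by luminescence with cell-impermeant substrate; EC50 from logistic fit of triplicates, normalized to lowest concentration.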

Assay [2] concerns the target T1, delF508-CFTR. The assay is described as follows: delF508-CFTR functional activity in primary human bronchial epithelial cells (HBECs), Multi-Transepithelial Clamp Circuit (MTECC-24) assay. Type of assay: cell-based. As to conditions: for EC50: primary human delF508-CFTR bronchial epithelial cells, 24 h with compound, equivalent short circuit current (Ieq), forskolin plus potentiator, mean of at least two replicates, read-out: MTECC24-CFHBEC EC50; for MTECC24-CFHBEC Amax %: test compound added 24 h before assay, with potentiator (S)-3-amino-6-methoxy-N-(3,3,3-trifluoro-2-hydroxy-2-methylpropyl)-5-(trifluoromethyl)picolinamide, relative to 2 μM 3-(6-(1-(2,2-difluorobenzo[d][1,3]dioxol-5-yl)cyclopropane-1-carboxamido)-3-methylpyridin-2-yl)benzoic acid + 0.5 μM N-(2,4-di-tert-butyl-5-hydroxyphenyl)-4-oxo-1,4-dihydroquinoline-3-carboxamide. The text has this: Measurement of delF508-CFTR Functional Activity in Primary Human Bronchial Epithelial Cells (HBECs) Using Multi-Transepithelial Clamp Circuit (MTECC-24) Assay
This assay measures the functional activity of the CFTR channel (Chloride ion transport) in patient derived primary human bronchial epithelial cells with forskolin activation and in the presence of the CFTR corrector/potentiator combination.
Primary human delF508-CFTR bronchial epithelial cells were and cultured according to previously established methods (Neuberger, T. et, al., Methods in Molecular Biology, 2011, 741, pp 39-54). Briefly, before thawing the HBEC cells, T25 flasks were coated with 2 mL of 3T3 conditioned media (MTI-GlobalStem, Cat #GSM9100) for at least 12 hours in 37° C. CO2 incubator. 1.7×10^5 cells were seeded into one T25 flask with 5 mL of HBE growth media (BEBM with supplements (Lonza, Cat #CC-3170) with 10 nM of retinoic acid (Sigma, Cat #R-2625) and 1% of PSA (Hyclone, Cat #SV30079.01). Media was changed every day till the cells were 100% confluent. Cells were seeded into T75 flasks (pre-coated with 5 mL of 3T3 conditioned media for more than 12 hrs) at 4.95×10^5 cells/T75 flask in 15 mL of HBE growth media. Flasks were fed everyday with fresh HBE growth media until the cells were confluent. 24-well transwell plates (Corning, Cat #3378) were coated with 3T3 conditioned media (70 μL on top of the filter, 350 μL to the bottom of the well) overnight in the 37° C. CO2 incubator. Cells were seeded in the pre-coated 24-well transwell plates at 1.7×10^5 cell/well with 700 μL of growth media at the bottom of the well and 200 μL of growth media at the top of the filter. After 24 hrs, cells were switched into HBE differentiation media ((DMEM/F12 (Gibco, Cat #11330-032) supplement with 2% Ultroser G (Pall, Cat #15950-017), 2% of Fetal Clone II (Hyclone, Cat #SH30066.03), 0.25% Bovine Brain Extract (Lonza, Cat #CC-4098), 1% of PSA, 2.5 μg/mL of Insulin (Sigma, Cat #19278), 20 nM of Hydrocortisone (Sigma, Cat #H0888), 500 nM of Triiodothyronine (Sigma, Cat #T6397), 2.5 μg/mL of Transferrin (Sigma, Cat #T8158), 250 nM of Ethanolamine (Sigma, Cat #E0135), 1.5 μM of Epinephrine (Sigma, Cat #E4250), 250 nM of Phosphoethanolamine (Sigma, Cat #P0503), 10 nM of retinoic acid)) with 200 μL on top of the filter (apical side) and 700 μL at the bottom of the well (basolateral side). Cells were fed every other day with the differentiation media. After 4 days, cells were exposed to air/liquid interface. Then cells were fed every other day for 4 weeks before fully differentiated.
Cells were washed with 3 mM DTT in PBS at 70 ul/well for 30 min at 37° C. 6 days before the assay. 3 days before the assay, cells were washed again with PBS at 70 ul/well for 30 min at 37° C. Then cells were treated with compound for 24 hrs before the assay.
Following 24 hr treatment with compound, cells were transferred into plates containing 750 ul of assay media on basolateral side and 250 ul on apical side (Assay medium: F-12 Coon's modified, 20 mM HEPES pH7.4 with TRIS Base, No FCS or bicarbonate). The plates wee then transferred to the heated plate compartments (basolateral buffer temperature ˜36.5° C. on the heating block) of the TECC24 system for 45 mins prior to measurements.
Modulators were added sequentially as follows while the TECC24 instrument recorded the equivalent short circuit current (Ieq):
Prior to dilution into assay medium the stocks were as follows: • Benzamil stock: 10 mM in DMSO • Forskolin Stock: 50 mM in DMSO • N-(2,4-di-tert-butyl-5-hydroxyphenyl)-1,4-dihydro-4-oxoquinoline-3-carboxamide: 50 mM in DMSO • (S)-3-amino-6-methoxy-N-(3,3,3-trifluoro-2-hydroxy-2-methylpropyl)-5-(trifluoromethyl)picolinamide: 50 mM stock 100% DMSO • Bumetanide stock: 20 mM in EtOH
The data was normalized using the median signal from wells treated with 0.1% DMSO as a baseline. Curve fitting and EC50 calculations were performed using the following equation: […]

In general, EC50 refers to the concentration at which the effect is half-maximal.

T1 sequence (P13569 with tags, fused parts or gaps DEL508-508): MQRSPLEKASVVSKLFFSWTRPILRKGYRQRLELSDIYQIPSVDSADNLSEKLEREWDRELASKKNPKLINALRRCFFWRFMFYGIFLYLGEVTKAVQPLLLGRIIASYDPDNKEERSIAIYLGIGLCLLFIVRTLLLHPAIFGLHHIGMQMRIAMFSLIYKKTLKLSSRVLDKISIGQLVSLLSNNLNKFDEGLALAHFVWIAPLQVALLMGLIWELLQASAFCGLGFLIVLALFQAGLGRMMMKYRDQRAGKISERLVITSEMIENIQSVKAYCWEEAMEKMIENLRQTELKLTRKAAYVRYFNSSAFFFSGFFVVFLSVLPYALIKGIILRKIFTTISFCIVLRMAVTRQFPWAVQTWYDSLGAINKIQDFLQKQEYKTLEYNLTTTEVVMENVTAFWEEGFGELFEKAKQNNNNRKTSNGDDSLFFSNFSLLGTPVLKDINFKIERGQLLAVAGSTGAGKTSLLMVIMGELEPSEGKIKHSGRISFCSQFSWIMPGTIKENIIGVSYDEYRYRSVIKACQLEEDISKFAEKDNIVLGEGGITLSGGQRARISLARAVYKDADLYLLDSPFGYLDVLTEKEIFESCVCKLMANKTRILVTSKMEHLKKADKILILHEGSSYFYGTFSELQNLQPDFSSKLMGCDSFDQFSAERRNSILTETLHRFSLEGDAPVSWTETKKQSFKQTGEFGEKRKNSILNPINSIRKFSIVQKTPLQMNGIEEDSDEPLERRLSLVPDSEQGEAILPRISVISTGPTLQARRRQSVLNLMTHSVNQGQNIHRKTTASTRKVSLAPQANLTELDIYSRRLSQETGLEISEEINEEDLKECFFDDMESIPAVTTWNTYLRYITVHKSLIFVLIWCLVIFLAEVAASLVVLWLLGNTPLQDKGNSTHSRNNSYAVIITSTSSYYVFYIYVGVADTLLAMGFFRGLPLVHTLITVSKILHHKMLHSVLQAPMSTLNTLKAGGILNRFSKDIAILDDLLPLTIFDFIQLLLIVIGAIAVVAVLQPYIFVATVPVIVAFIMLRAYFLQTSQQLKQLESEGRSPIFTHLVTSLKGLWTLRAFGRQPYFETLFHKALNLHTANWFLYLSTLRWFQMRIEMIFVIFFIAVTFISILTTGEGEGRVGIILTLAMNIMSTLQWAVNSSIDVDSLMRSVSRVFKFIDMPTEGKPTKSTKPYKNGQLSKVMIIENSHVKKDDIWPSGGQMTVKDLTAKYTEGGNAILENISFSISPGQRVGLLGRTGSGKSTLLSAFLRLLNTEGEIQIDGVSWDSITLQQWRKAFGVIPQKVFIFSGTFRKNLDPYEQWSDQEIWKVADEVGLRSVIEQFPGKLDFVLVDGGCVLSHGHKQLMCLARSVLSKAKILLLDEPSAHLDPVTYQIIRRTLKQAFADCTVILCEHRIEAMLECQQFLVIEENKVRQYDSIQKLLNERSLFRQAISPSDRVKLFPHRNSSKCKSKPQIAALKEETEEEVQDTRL

Consider `CCN(CCC(=O)O)c1cccc(S(=O)(=O)Nc2ccc(C(F)(F)F)c(-c3ccccc3C)n2)n1` [Compound 71, 3-(ethyl(6-(N-(6-(o-tolyl)-5-(trifluoromethyl)pyridin-2-yl)sulfamoyl)pyridin-2-yl)amino)propanoic Acid], for which, at delF508-CFTR [1], the EC50 was found to be 2360 nM. At delF508-CFTR [2], the EC50 was found to be 365 nM and the “MTECC24-CFHBEC Amax %” value came to 137%.
As for `CCc1ccccc1-c1nc(NS(=O)(=O)c2cccc(N(CC)CCC(=O)O)n2)ccc1C(F)(F)F` [Compound 72, 3-(ethyl(6-(N-(6-(2-ethylphenyl)-5-(trifluoromethyl)pyridin-2-yl)sulfamoyl)pyridin-2-yl)amino)propanoic Acid], the EC50 at delF508-CFTR [1] came out at 1880 nM. On delF508-CFTR [2], the 50% effective concentration (EC50) worked out at 116 nM and the “MTECC24-CFHBEC Amax %” value was found to be 118%.
For `CCN(CCC(=O)O)c1cccc(S(=O)(=O)Nc2ccc(C(F)(F)F)c(-c3ccccc3C3CC3)n2)n1` [Compound 80, 3-((6-(N-(6-(2-cyclopropylphenyl)-5-(trifluoromethyl)pyridin-2-yl)sulfamoyl)pyridin-2-yl)(ethyl)amino)propanoic Acid], the EC50 at delF508-CFTR [1] worked out at 1930 nM. Also, at delF508-CFTR [2], the 50% effective concentration (EC50) was 105 nM and the “MTECC24-CFHBEC Amax %” value was found to be 95%.
With `CCc1ccc(F)cc1-c1nc(NS(=O)(=O)c2cccc(N(CC)CCC(=O)O)n2)ccc1C(F)(F)F` [Compound 81, 3-(ethyl(6-(N-(6-(2-ethyl-5-fluorophenyl)-5-(trifluoromethyl)pyridin-2-yl)sulfamoyl)pyridin-2-yl)amino)propanoic Acid], the EC50 is 1770 nM at delF508-CFTR [1] and 35 nM on delF508-CFTR [2]. Besides, the “MTECC24-CFHBEC Amax %” value at delF508-CFTR [2] came out at 145%.
For the compound `CCc1ccccc1-c1nc(NS(=O)(=O)c2cccc(N3CCC[C@@H](CC(=O)O)C3)n2)ccc1C(F)(F)F` [Compound 85, (S)-2-(1-(6-(N-(6-(2-ethylphenyl)-5-(trifluoromethyl)pyridin-2-yl)sulfamoyl)pyridin-2-yl)piperidin-3-yl)acetic Acid], the EC50 at delF508-CFTR [1] is 1410 nM. For the same compound, on delF508-CFTR [2], the EC50 was 30 nM and the “MTECC24-CFHBEC Amax %” value was found to be 152%.
As to `Cc1ccccc1-c1nc(NS(=O)(=O)c2cccc(N(CCC(=O)O)CC3CC3)n2)ccc1C(F)(F)F` [Compound 86, 3-((cyclopropylmethyl)(6-(N-(6-(o-tolyl)-5-(trifluoromethyl)pyridin-2-yl)sulfamoyl)pyridin-2-yl)amino)propanoic Acid], the EC50 is 1380 nM at delF508-CFTR [1] and 61 nM on delF508-CFTR [2]. Moreover, the “MTECC24-CFHBEC Amax %” value at delF508-CFTR [2] was 253%.
As to `CCCCN(CCCC(=O)O)c1cccc(S(=O)(=O)Nc2ccc(C(F)(F)F)c(-c3ccccc3C)n2)n1` [Compound 87, 4-(butyl(6-(N-(6-(o-tolyl)-5-(trifluoromethyl)pyridin-2-yl)sulfamoyl)pyridin-2-yl)amino)butanoic Acid], at delF508-CFTR [1], the EC50 came out at 1380 nM. In addition, at delF508-CFTR [2], the EC50 turned out to be 104 nM and the “MTECC24-CFHBEC Amax %” value is recorded as 269%.
On to `CC(C)c1ccccc1-c1nc(NS(=O)(=O)c2cccc(N(C)CCCC(=O)O)n2)ccc1C(F)(F)F` [Compound 90, 4-((6-(N-(6-(2-isopropylphenyl)-5-(trifluoromethyl)pyridin-2-yl)sulfamoyl)pyridin-2-yl)(methyl)amino)butanoic Acid], for which the EC50 on delF508-CFTR [1] was 1350 nM. Also, at delF508-CFTR [2], the EC50 came out at 5 nM and the “MTECC24-CFHBEC Amax %” value is on record as 135%.
With `Cc1ccc(F)cc1-c1nc(NS(=O)(=O)c2cccc(N(C)CCCC(=O)O)n2)ccc1C(F)(F)F` [Compound 92, 4-((6-(N-(6-(5-fluoro-2-methylphenyl)-5-(trifluoromethyl)pyridin-2-yl)sulfamoyl)pyridin-2-yl)(methyl)amino)butanoic Acid], the 50% effective concentration (EC50) on delF508-CFTR [1] stood at 1820 nM. Besides, at delF508-CFTR [2], the EC50 worked out at 394 nM and the “MTECC24-CFHBEC Amax %” value worked out at 123%.
The matching figures for `CCc1ccc(F)cc1-c1nc(NS(=O)(=O)c2cccc(N(C)CCCC(=O)O)n2)ccc1C(F)(F)F` [Compound 93, 4-((6-(N-(6-(2-ethyl-5-fluorophenyl)-5-(trifluoromethyl)pyridin-2-yl)sulfamoyl)pyridin-2-yl)(methyl)amino)butanoic Acid]: 1430 nM, 40 nM and 235%.
In the case of `Cc1ccccc1-c1nc(NS(=O)(=O)c2cccc(N(CCCC(=O)O)C(C)C)n2)ccc1C(F)(F)F` [Compound 94, 4-(isopropyl(6-(N-(6-(o-tolyl)-5-(trifluoromethyl)pyridin-2-yl)sulfamoyl)pyridin-2-yl)amino)butanoic acid], on delF508-CFTR [1], the EC50 was determined as 1370 nM. For the same compound, on delF508-CFTR [2], the EC50 worked out at 26 nM and the “MTECC24-CFHBEC Amax %” value is on record as 208%.
With `Cc1ccc(F)cc1-c1nc(NS(=O)(=O)c2cccc(N(CCCC(=O)O)C(C)C)n2)ccc1C(F)(F)F` [Compound 95, 4-((6-(N-(6-(5-fluoro-2-methylphenyl)-5-(trifluoromethyl)pyridin-2-yl)sulfamoyl)pyridin-2-yl)(isopropyl)amino)butanoic Acid], the half-maximal effective concentration (EC50) on delF508-CFTR [1] is 1680 nM. Besides, at delF508-CFTR [2], the EC50 was determined as 24 nM and the “MTECC24-CFHBEC Amax %” value was 148%.
Take `CCc1ccccc1-c1nc(NS(=O)(=O)c2cccc(N(CCCC(=O)O)C(C)C)n2)ccc1C(F)(F)F` [Compound 96, 4-((6-(N-(6-(2-ethylphenyl)-5-(trifluoromethyl)pyridin-2-yl)sulfamoyl)pyridin-2-yl)(isopropyl)amino)butanoic Acid]: the EC50 on delF508-CFTR [1] turned out to be 720 nM. For the same compound, at delF508-CFTR [2], the EC50 is 2 nM and the “MTECC24-CFHBEC Amax %” value is 202%.
On to `CCc1ccccc1-c1nc(NS(=O)(=O)c2cccc(N(CC)CCCC(=O)O)n2)ccc1C(F)(F)F` [Compound 97, 4-(ethyl(6-(N-(6-(2-ethylphenyl)-5-(trifluoromethyl)pyridin-2-yl)sulfamoyl)pyridin-2-yl)amino)butanoic Acid], for which the EC50 on delF508-CFTR [1] came to 1360 nM. Besides, at delF508-CFTR [2], the EC50 was 4 nM and the “MTECC24-CFHBEC Amax %” value worked out at 190%.
The matching figures for `CCCCN(CCCC(=O)O)c1cccc(S(=O)(=O)Nc2ccc(C(F)(F)F)c(-c3cc(F)ccc3C)n2)n1` [Compound 102, 4-(butyl(6-(N-(6-(5-fluoro-2-methylphenyl)-5-(trifluoromethyl)pyridin-2-yl)sulfamoyl)pyridin-2-yl)amino)butanoic Acid]: 1260 nM, 131 nM and 298%.
